# Measurements as given in PubChem BioAssay (NCI).
#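 Compound exposure: 48 hours, 5 concentrations, 96-well plates. GI50 is the concentration that inhibits growth by half. TGI: concentration producing complete growth inhibition.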
# Assays:
# Assay in all cases: inhibition of tumour cell growth, NCI panel, 48 h
# UO-31 renal = system: UO-31 renal
# 786-0 renal = system: 786-0 renal
# PC-3 prostate = system: PC-3 prostate
# U251 CNS = system: U251 CNS
# RXF 393 renal = system: RXF 393 renal
# HOP-92 NSCLC = system: HOP-92 NSCLC
# T-47D breast = system: T-47D breast
# SNB-19 CNS = system: SNB-19 CNS
# CAKI-1 renal = system: CAKI-1 renal
# TK-10 renal = system: TK-10 renal
# CCRF-CEM leukemia = system: CCRF-CEM leukemia
# SK-MEL-28 melanoma = system: SK-MEL-28 melanoma
# A549 NSCLC = system: A549 NSCLC
# A498 renal = system: A498 renal
# HT29 colon = system: HT29 colon
# SNB-75 CNS = system: SNB-75 CNS
# HOP-62 NSCLC = system: HOP-62 NSCLC
# SK-MEL-2 melanoma = system: SK-MEL-2 melanoma
# COLO 205 colon = system: COLO 205 colon
# KM12 colon = system: KM12 colon
# BT-549 breast = system: BT-549 breast
# K-562 leukemia = system: K-562 leukemia
# MDA-MB-435 = system: MDA-MB-435
# OVCAR-4 ovarian = system: OVCAR-4 ovarian
# SR leukemia = system: SR leukemia
# OVCAR-3 ovarian = system: OVCAR-3 ovarian
# OVCAR-8 ovarian = system: OVCAR-8 ovarian
# NCI-H226 lung = system: NCI-H226 lung
# MCF7 breast = system: MCF7 breast
# DU-145 prostate = system: DU-145 prostate
# NCI-H460 lung = system: NCI-H460 lung
# OVCAR-5 ovarian = system: OVCAR-5 ovarian
# HCT-15 colon = system: HCT-15 colon
# SF-268 CNS = system: SF-268 CNS
# HL-60(TB) leukemia = system: HL-60(TB) leukemia
# UACC-257 melanoma = system: UACC-257 melanoma
# NCI/ADR-RES ovarian = system: NCI/ADR-RES ovarian
# SF-539 CNS = system: SF-539 CNS
# IGROV1 ovarian = system: IGROV1 ovarian
# HCC-2998 colon = system: HCC-2998 colon
# MDA-MB-231 breast = system: MDA-MB-231 breast
# ACHN renal = system: ACHN renal
# HS 578T breast = system: HS 578T breast
# HCT-116 colon = system: HCT-116 colon
# UACC-62 melanoma = system: UACC-62 melanoma
# SK-OV-3 ovarian = system: SK-OV-3 ovarian
# RPMI-8226 leukemia = system: RPMI-8226 leukemia
# EKVX NSCLC = system: EKVX NSCLC
# MOLT-4 leukemia = system: MOLT-4 leukemia
# SF-295 CNS = system: SF-295 CNS
smiles,measurement,setting,value
Fc1ccc(-c2cc3nc(C(Cl)Cl)nc(-c4ccccc4)n3n2)cc1,GI50,UO-31 renal,1.73 µM
same,TGI,UO-31 renal,4.2 µM
same,GI50,786-0 renal,6.33 µM
same,TGI,786-0 renal,> 100 µM
same,GI50,PC-3 prostate,1.75 µM
same,TGI,PC-3 prostate,4.39 µM
same,GI50,U251 CNS,0.984 µM
same,TGI,U251 CNS,2.59 µM
same,GI50,RXF 393 renal,1.21 µM
same,TGI,RXF 393 renal,2.55 µM
same,GI50,HOP-92 NSCLC,1.9 µM
same,TGI,HOP-92 NSCLC,4.81 µM
same,GI50,T-47D breast,1.86 µM
same,TGI,T-47D breast,5.99 µM
same,GI50,SNB-19 CNS,1.58 µM
same,TGI,SNB-19 CNS,6.6 µM
same,GI50,CAKI-1 renal,1.82 µM
same,TGI,CAKI-1 renal,6.2 µM
same,GI50,TK-10 renal,2.13 µM
same,TGI,TK-10 renal,5.26 µM
same,GI50,CCRF-CEM leukemia,6.5 µM
same,TGI,CCRF-CEM leukemia,> 100 µM
same,GI50,SK-MEL-28 melanoma,2.01 µM
same,TGI,SK-MEL-28 melanoma,3.81 µM
same,GI50,A549 NSCLC,1.1 µM
same,TGI,A549 NSCLC,2.6 µM
same,GI50,A498 renal,1.81 µM
same,TGI,A498 renal,3.55 µM
same,GI50,HT29 colon,0.737 µM
same,TGI,HT29 colon,2.67 µM
same,GI50,SNB-75 CNS,7.55 µM
same,TGI,SNB-75 CNS,> 100 µM
same,GI50,HOP-62 NSCLC,1.48 µM
same,TGI,HOP-62 NSCLC,3.72 µM
same,GI50,SK-MEL-2 melanoma,4.46 µM
same,TGI,SK-MEL-2 melanoma,> 100 µM
same,GI50,COLO 205 colon,1.15 µM
same,TGI,COLO 205 colon,2.5 µM
same,GI50,KM12 colon,1.59 µM
same,TGI,KM12 colon,4.72 µM
same,GI50,BT-549 breast,5.44 µM
same,TGI,BT-549 breast,> 100 µM
same,GI50,K-562 leukemia,2.58 µM
same,TGI,K-562 leukemia,> 100 µM
same,GI50,MDA-MB-435,1.81 µM
same,TGI,MDA-MB-435,3.77 µM
same,GI50,OVCAR-4 ovarian,2.15 µM
same,TGI,OVCAR-4 ovarian,7.32 µM
same,GI50,SR leukemia,2.17 µM
same,TGI,SR leukemia,> 100 µM
same,GI50,OVCAR-3 ovarian,1.53 µM
same,TGI,OVCAR-3 ovarian,3.1 µM
same,GI50,OVCAR-8 ovarian,1.41 µM
same,TGI,OVCAR-8 ovarian,3.87 µM
same,GI50,NCI-H226 lung,> 100 µM
same,TGI,NCI-H226 lung,> 100 µM
same,GI50,MCF7 breast,0.673 µM
same,TGI,MCF7 breast,7.37 µM
same,GI50,DU-145 prostate,0.411 µM
same,TGI,DU-145 prostate,2.33 µM
same,GI50,NCI-H460 lung,0.513 µM
same,TGI,NCI-H460 lung,2.07 µM
same,GI50,OVCAR-5 ovarian,2.29 µM
same,TGI,OVCAR-5 ovarian,6.77 µM
same,GI50,HCT-15 colon,1.35 µM
same,TGI,HCT-15 colon,6.43 µM
same,GI50,SF-268 CNS,1.81 µM
same,TGI,SF-268 CNS,5.21 µM
same,GI50,HL-60(TB) leukemia,0.507 µM
same,TGI,HL-60(TB) leukemia,74.6 µM
same,GI50,UACC-257 melanoma,2.11 µM
same,TGI,UACC-257 melanoma,4.23 µM
same,GI50,NCI/ADR-RES ovarian,1.43 µM
same,TGI,NCI/ADR-RES ovarian,6.21 µM
same,GI50,SF-539 CNS,1.97 µM
same,TGI,SF-539 CNS,5.12 µM
same,GI50,IGROV1 ovarian,4.08 µM
same,TGI,IGROV1 ovarian,> 100 µM
same,GI50,HCC-2998 colon,1.18 µM
same,TGI,HCC-2998 colon,2.55 µM
same,GI50,MDA-MB-231 breast,1.76 µM
same,TGI,MDA-MB-231 breast,5.76 µM
same,GI50,ACHN renal,0.777 µM
same,TGI,ACHN renal,3.02 µM
same,GI50,HS 578T breast,3.01 µM
same,TGI,HS 578T breast,9.19 µM
same,GI50,HCT-116 colon,1.68 µM
same,TGI,HCT-116 colon,4.84 µM
same,GI50,UACC-62 melanoma,2.47 µM
same,TGI,UACC-62 melanoma,8.12 µM
same,GI50,SK-OV-3 ovarian,2.19 µM
same,TGI,SK-OV-3 ovarian,5.13 µM
same,GI50,RPMI-8226 leukemia,2.2 µM
same,TGI,RPMI-8226 leukemia,10 µM
same,GI50,EKVX NSCLC,2.04 µM
same,TGI,EKVX NSCLC,5.58 µM
same,GI50,MOLT-4 leukemia,3.18 µM
same,TGI,MOLT-4 leukemia,> 100 µM
same,GI50,SF-295 CNS,2.21 µM
same,TGI,SF-295 CNS,5.63 µM
